What follows are compounds tested against T1, APOL1 (Homo sapiens, UniProt O14791) (assay: MultiTox-Fluor Multiplex Cytotoxicity Assay, tet-inducible APOL1 T-REx-HEK293 cells (G0, G1 or G2 clone not specified for Table 20)). Conditions: tet-induced, 24 hours with compound, ratio of dead to live cells, read-out: IP50 (i.e., IC50 for cell proliferation).
T1 sequence (O14791 1-398): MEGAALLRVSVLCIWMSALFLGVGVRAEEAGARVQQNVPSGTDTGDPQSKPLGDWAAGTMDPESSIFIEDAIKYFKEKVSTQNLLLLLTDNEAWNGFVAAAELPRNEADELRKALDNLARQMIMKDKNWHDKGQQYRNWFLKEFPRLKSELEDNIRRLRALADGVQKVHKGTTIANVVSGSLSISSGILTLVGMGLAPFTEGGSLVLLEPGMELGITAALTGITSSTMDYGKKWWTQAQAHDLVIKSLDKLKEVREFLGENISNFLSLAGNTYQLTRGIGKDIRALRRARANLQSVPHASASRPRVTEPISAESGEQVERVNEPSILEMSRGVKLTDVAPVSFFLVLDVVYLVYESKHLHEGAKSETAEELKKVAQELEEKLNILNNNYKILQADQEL
Type: cell-based
Procedure: Human embryonic kidney (HEK293) cell lines containing a tet-inducible expression system (T-REx™; Invitrogen, Carlsbad, CA) and Adeno-associated virus site 1 pAAVS1-Puro-APOL1 G0 or pAAVS1-Puro-APOL1 G1 or pAAVS1-Puro-APOL1 G2 Clones G0 DC2.13, G1 DC3.25, and G2 DC4.44 were grown in a T-225 flask at ˜90% confluency in cell growth media (DMEM, 10% Tet-free FBS, 2 mM L-glutamine, 100 Units/mL penicillin-streptomycin, 5 μg/mL blasticidin S HCl, 1 μg/mL puromycin dihydrochloride). Cells were washed with DPBS and then trypsinized to dissociate from the flask. Media was used to quench the trypsin, cells were then pelleted at 200 g and resuspended in fresh cell assay media (DMEM, 2% Tet-free FBS, 2 mM L-glutamine, 100 Units/mL penicillin-streptomycin). Cells were counted and diluted to 1.17×10^6 cells/mL. 20 μL of cells (23,400/well) were dispensed in every well of a 384-well Poly-D-Lysine coated plate using the Multidrop dispenser. The plates were then incubated at room temperature for one hour.
Tetracycline is needed to induce APOL1 expression. 1 mg/mL tet stock in water was diluted to 250 ng/mL (5×) in cell assay media. 60 μL of cell assay media (no tet control) was dispensed in columns 1 and 24, and 60 μL of 5× tet in 384-PP-round bottom plate was dispensed in columns 2 to 23 with the Multidrop dispenser.
Assay ready plates from the Global Compound Archive were ordered using template 384_APOL1Cell_DR10n2_50 uM_v3. Compounds were dispensed at 200 nL in DMSO. The final top concentration was 10 μM with a 10 point 3-fold dilution in duplicate in the MultiTox assay.
20 μL was transferred from the 5× tet plate to the ARP and mixed, then 5 μL of 5× tet and the compounds were transferred to the cell plate and mixed using the Bravo. The cell plate was placed in the humidified 37° C. 5% CO2 incubator for 24 hours.
The MultiTox-Fluor Multiplex Cytotoxicity Assay was performed in accordance with the manufacturer's protocol. After cells were incubated with tet and compound for 24 hours, 25 μL of 1× MultiTox reagent was added to each well using the Multidrop dispenser; the plates were placed on a plate shaker (600 rpm) for 2 minutes, then centrifuged briefly and placed back in the 37° C. incubator for 30 minutes. The cell viability (excitation: 400 nm, emission: 486 nm) and cytotoxicity (excitation: 485 nm, emission: 535 nm) were read using the EnVision plate reader. A ratio of dead (cytotoxicity) to live (viability) cells was reported. Data was exported and analyzed in Genedata. Data was normalized using percent of control, no tet (100% viability), and 50 ng/mL tet treated (0% viability), and fit using Smart Fit settings in Genedata.
`CNC(=O)C1OC2(CCN(Cc3cnn(C4CCOCC4)c3)CC2)c2cc(Cl)ccc21` (centres unmarked) [Compound 200] gave an IC50 of 50 to 500 nM.
Compound `CS(=O)(=O)CCn1cc(CN2CCC3(CC2)C(=O)N(CC(F)F)c2ccccc23)cn1` [Compound 73] has an IC50 of no less than 500 nM.
`CN1C(=O)C2(CCN(Cc3cnn(CCS(C)(=O)=O)c3)CC2)c2cc(OC(F)(F)F)ccc21` [Compound 87] was tested, and the IC50 was no less than 500 nM.
Compound `NC(=O)c1ccc(CN2CCC3(CC2)OC(C(N)=O)c2ccc(Cl)cc23)cc1` (centres unmarked) [Compound 225] has an IC50 of no more than 50 nM.
In the case of `Cc1ccc2c(c1)C1(CCN(Cc3cnn(CC(=O)N(C)C)c3)CC1)C(=O)N2` [Compound 25], the IC50 is reported as no less than 500 nM.
`CS(=O)(=O)CCn1cc(CN2CCC3(CC2)C(=O)Nc2c(Cl)cc(Cl)cc23)cn1` [Compound 36] was tested, and the IC50 was 50 to 500 nM.
With `Cn1cc(CN2CCC3(CC2)C(=O)Nc2ccc(Cl)cc23)cn1` [Compound 13] the IC50 was 50 to 500 nM.
With `NC(=O)C1OC2(CCN(Cc3c[nH]c4nccnc34)CC2)c2cc(Cl)ccc21` (centres unmarked) [Compound 232] the IC50 was no more than 50 nM.
`CCc1ccc2c(c1)C1(CCN(Cc3cnn(-c4ccccc4)c3)CC1)OC2C(=O)NC` (centres unmarked) [Compound 206, 5-ethyl-N-methyl-1′-[(1-phenylpyrazol-4-yl)methyl]spiro[1H-isobenzofuran-3,4′-piperidine]-1-carboxamide] showed an IC50 of 50 to 500 nM.
`CNC(=O)C1OC2(CCN(Cc3cnn(-c4ccccc4)c3C)CC2)c2cc(Cl)ccc21` (centres unmarked) [Compound 299, 6-chloro-N-methyl-1′-((5-methyl-1-phenyl-1H-pyrazol-4-yl)methyl)-3H-spiro[isobenzofuran-1,4′-piperidine]-3-carboxamide] showed an IC50 of no less than 500 nM.
With `CS(=O)(=O)CCn1cc(CN2CCC3(CC2)C(=O)Nc2ccc(C(F)C(F)F)cc23)cn1` (centres unmarked) [Compound 32] the IC50 was no less than 500 nM.
`N#Cc1ccc2c(c1)C1(CCN(Cc3cnn(-c4ccccc4)c3)CC1)OC2C(N)=O` (centres unmarked) [Compound 203, 5-cyano-1′-[(1-phenylpyrazol-4-yl)methyl]spiro[1H-isobenzofuran-3,4′-piperidine]-1-carboxamide] was tested, and the IC50 was no more than 50 nM.
For `NC(=O)C1OC2(CCN(Cc3c[nH]c4ccncc34)CC2)c2cc(Cl)ccc21` (centres unmarked) [Compound 264], the IC50 was no less than 500 nM.
Work on `CN1C(=O)Cc2ccc(CN3CCC4(CC3)OC(C(N)=O)c3ccc(Cl)cc34)cc21` (centres unmarked) [Compound 230] yielded an IC50 of no more than 50 nM.
For `Cc1ccc2c(c1)C1(CCN(Cc3cnn(C)c3)CC1)OC2` [Compound 286, 5-methyl-1′-[(1-methylpyrazol-4-yl)methyl]spiro[1H-isobenzofuran-3,4′-piperidine]], the IC50 was no less than 500 nM.
`Cc1ccc2c(c1)C1(CCN(Cc3cn(CCS(C)(=O)=O)nn3)[C@@H](C)C1)OC2(C)C` (single isomer, unassigned) [Compound 290, (2′S)-2′,3,3,6-tetramethyl-1′-((1-(2-(methylsulfonyl)ethyl)-1H-1,2,3-triazol-4-yl)methyl)-3H-spiro[isobenzofuran-1,4′-piperidine]] gave an IC50 of no less than 500 nM.
In the case of `CNC(=O)C1OC2(CCN(Cc3cnn(-c4ccccc4)c3)CC2)c2cc(C)ccc21` (centres unmarked) [Compound 198], the IC50 is reported as no more than 50 nM.
Work on `Cn1cc(CN2CCC3(CCc4ccc(Cl)cc43)CC2)cn1` [Compound 310, 6-chloro-1′-[(1-methylpyrazol-4-yl)methyl]spiro[indane-1,4′-piperidine]] yielded an IC50 of no less than 500 nM.
`O=C1Nc2ccc(Cl)cc2C12CCN(Cc1cnn(CCO)c1)CC2` [Compound 4] was tested, and the IC50 was no less than 500 nM.
With `C[C@H]1C[C@@]2(CCN1Cc1cn(CC3(CC(N)=O)CC3)nn1)OCCc1ccc(Cl)cc12` [Compound 175] the IC50 was no more than 50 nM.
With `NC(=O)C1OC2(CCN(Cc3cnn(-c4cccnc4)c3)CC2)c2cc(Cl)ccc21` (centres unmarked) [Compound 239] the IC50 was no more than 50 nM.
`C[C@H]1CC2(CCN1Cc1cnn(-c3ccccc3)c1)OC(C(N)=O)c1ccc(Cl)cc12` (stereo partly drawn) [Compound 292, (2′S)-5-chloro-2′-methyl-1′-[(1-phenylpyrazol-4-yl)methyl]spiro[1H-isobenzofuran-3,4′-piperidine]-1-carboxamide] gave an IC50 of no more than 50 nM.
With `CNC(=O)C1OC2(CCN(Cc3cnn(-c4ccccc4)c3)[C@@H](C)C2)c2cc(Cl)ccc21` (single isomer, unassigned) [Compound 294, (2′S)-5-chloro-N,2′-dimethyl-1′-[(1-phenylpyrazol-4-yl)methyl]spiro[1H-isobenzofuran-3,4′-piperidine]-1-carboxamide] the IC50 was no less than 500 nM.
For `Cn1cnc(CN2CCC3(CC2)OC(C(N)=O)c2ccc(Cl)cc23)c1` (centres unmarked) [Compound 273], the IC50 was no less than 500 nM.
With `CN1C(=O)C2(CCN(Cc3cnn(CC(O)C(F)(F)F)c3)CC2)c2cc(Cl)ccc21` (centres unmarked) [Compound 53] the IC50 was 50 to 500 nM.
Compound `C[C@H]1C[C@@]2(CCN1Cc1cnn(CCS(C)(=O)=O)c1)C(=O)N(C)c1ccc(Cl)cc12` [Compound 80, (2′S,3R)-5-chloro-1,2′-dimethyl-1′-[[1-(2-methylsulfonylethyl)pyrazol-4-yl]methyl]spiro[indoline-3,4′-piperidine]-2-one trifluoracetic acid] has an IC50 of no more than 50 nM.
`N#Cc1ccc(CN2CCC3(CC2)OC(C(N)=O)c2ccc(Cl)cc23)cc1` (centres unmarked) [Compound 217] showed an IC50 of 50 to 500 nM.
In the case of `Cc1cc(CN2CCC3(CC2)OC(C(N)=O)c2ccc(Cl)cc23)no1` (centres unmarked) [Compound 265], the IC50 is reported as no less than 500 nM.
`CNC(=O)C1OC2(CCN(Cc3cnn(-c4cccnc4)c3)CC2)c2cc(Cl)ccc21` (centres unmarked) [Compound 202] gave an IC50 of no more than 50 nM.
Compound `NC(=O)C1OC2(CCN(Cc3cocn3)CC2)c2cc(Cl)ccc21` (centres unmarked) [Compound 255] has an IC50 of no less than 500 nM.
With `CS(=O)(=O)CCn1cc(CN2CCC3(CC2)CNc2ccc(Cl)cc23)cn1` [Compound 305, 5-chloro-1′-[[1-(2-methylsulfonylethyl)pyrazol-4-yl]methyl]spiro[indoline-3,4′-piperidine]] the IC50 was no less than 500 nM.
In the case of `Cc1ccc2c(c1)C1(CCN(Cc3cnn(CCS(C)(=O)=O)c3)CC1)C(=O)N2` [Compound 23], the IC50 is reported as 50 to 500 nM.
`C[C@H]1C[C@@]2(CCN1Cc1cnn(CCS(C)(=O)=O)c1)OCC(F)(F)c1ccc(Cl)cc12` [Compound 135] showed an IC50 of no more than 50 nM.
For `C[C@H]1C[C@@]2(CCN1Cc1cn(CCCO)nn1)OCCc1ccc(Cl)cc12` [Compound 147], the IC50 was no more than 50 nM.
In the case of `CN1C(=O)C2(CCN(Cc3cnn(CC(C)(C)O)c3)CC2)c2cc(Cl)ccc21` [Compound 52, 5-chloro-1′-[[1-(2-hydroxy-2-methyl-propyl)pyrazol-4-yl]methyl]-1-methyl-spiro[indoline-3,4′-piperidine]-2-one], the IC50 is reported as no more than 50 nM.
`Cc1c(CN2CCC3(CC2)OC(C(N)=O)c2ccc(Cl)cc23)cnn1C` (centres unmarked) [Compound 275] gave an IC50 of no less than 500 nM.
With `CN1C(=O)C2(CCN(Cc3cnn(CCS(N)(=O)=O)c3)CC2)c2ccccc21` [Compound 72, 2-(4-((I-methyl-2-oxospiro[indoline-3,4′-piperidin]-1′-yl)methyl)-1H-pyrazol-1-yl)ethane-1-sulfonamide] the IC50 was no less than 500 nM.
`C[C@H]1C[C@@]2(CCN1Cc1cnn(CCO)c1)C(=O)Nc1ccc(Cl)cc12` [Compound 75] was tested, and the IC50 was 50 to 500 nM.
For `Cn1cc(CN2CCC3(CC2)C(=O)Nc2ccc(CC(F)F)cc23)cn1` [Compound 34], the IC50 was no less than 500 nM.
`Cc1n[nH]c(C(F)(F)Cn2cc(CN3CC[C@]4(C[C@@H]3C)OCCc3ccc(Cl)cc34)nn2)n1` [Compound 168] was tested, and the IC50 was 50 to 500 nM.
In the case of `C[C@H]1C[C@@]2(CCN1Cc1cn(C3CN(S(C)(=O)=O)C3)nn1)OCCc1ccc(Cl)cc12` [Compound 150], the IC50 is reported as no more than 50 nM.
Compound `C[C@H]1C[C@@]2(CCN1Cc1c[nH]nn1)OCCc1ccc(Cl)cc12` [Compound 106] has an IC50 of no more than 50 nM.
Compound `CS(=O)(=O)CCn1cc(CN2CCC3(CC2)CC(O)c2ccc(Cl)cc23)cn1` (centres unmarked) [Compound 302, 5-chloro-1′-[[1-(2-methylsulfonylethyl)pyrazol-4-yl]methyl]spiro[indane-3,4′-piperidine]-1-ol] has an IC50 of 50 to 500 nM.
Compound `CS(=O)(=O)CCn1cc(CN2CCC3(CC2)C(=O)N(CC(F)(F)F)c2ccc(Cl)cc23)cn1` [Compound 50] has an IC50 of 50 to 500 nM.

Source: patent publication US20250195483A1, “SPIRO PIPERIDINE DERIVATIVES AS INHIBITORS OF APOL1 AND METHODS OF USING SAME” (Vertex Pharmaceuticals Incorporated, priority 2022, published 2025)
